Reference: patent US20240368181A1, “QUINOXALINE DERIVATIVES AND USES THEREOF” (Black Diamond Therapeutics, Inc., priority 2021, published 2024)

Legend:
Type in all cases: cell-based
[1] = system: RT-112 (FGFR3-Tacc3 fusion) cells; assay: cell proliferation assay (CellTiterGlo), RT-112 cells; details: Homo sapiens, RT-112, RT112 cells, 72 hours
How it was run: (§1)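 Luminescent ATP read-out (CellTiterGlo) after exposure to compound at varying concentrations or DMSO vehicle. IC50 derived with vehicle-treated wells set as viable cells.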

[2] = system: DMS-114 (FGFR1 overexpression) cells; assay: cell proliferation assay (CellTiterGlo), DMS-114 cells; details: Homo sapiens, DMS-114, 72 h
How it was run: as §1

[3] = system: UM-UC-14 (FGFR3-S249C) cells; assay: cell proliferation assay (CellTiterGlo), UM-UC-14 cells; details: UMUC14, 72 h
How it was run: as §1

[4] = system: SNU-16 (FGFR2-amplification) cells; assay: cell proliferation assay (CellTiterGlo), SNU-16 cells; details: Homo sapiens, 72 hours
How it was run: as §1

Row | SMILES | IC50 [4] | IC50 [1] | IC50 [2] | IC50 [3]
1 | Cc1nc2ccc(Oc3ccc4ncc(-c5cnn([C@H]6C[C@@](C)(O)C6)c5)nc4c3Cl)c(F)c2[nH]1 [Compound 151] | < 20 nM | < 20 nM | 20 to 100 nM | < 20 nM
2 | Cc1nc2ccc(Oc3ccc4ncc(-c5cnn(CC6CCC(F)(F)CC6)c5)nc4c3Cl)c(F)c2[nH]1 [Compound 152] | 20 to 100 nM | 20 to 100 nM | 100 to 400 nM | 20 to 100 nM
3 | Cc1nc2ccc(Oc3ccc4ncc(-c5cnn(C6CCC(F)(F)CC6)c5)nc4c3Cl)c(F)c2[nH]1 [Compound 153] | 20 to 100 nM | 20 to 100 nM | 100 to 400 nM | 20 to 100 nM
4 | Cc1nc2ccc(Oc3ccc4ncc(-c5cnn(CC6CC(F)(F)C6)c5)nc4c3C3=CCOC3)cc2[nH]1 [Compound 179] | < 20 nM | < 20 nM | 100 to 400 nM | < 20 nM
5 | Cc1nc2ccc(Oc3ccc4ncc(-c5cnn(C6CC7COCC(C6)N7)c5)nc4c3Cl)cc2[nH]1 (stereo not drawn) [Compound 187] | 20 to 100 nM | 20 to 100 nM | ≥ 400 nM | 20 to 100 nM
6 | Cc1nc2ccc(Oc3ccc4ncc(-c5cnn(CC(=O)N6CCOC(C)(C)C6)c5)nc4c3Cl)cc2[nH]1 [Compound 188] | 20 to 100 nM | 20 to 100 nM | ≥ 400 nM | 20 to 100 nM
7 | Cc1nc2ccc(Oc3ccc4ncc(-c5cnn(CC(=O)N6C[C@@H](C)O[C@@H](C)C6)c5)nc4c3Cl)cc2[nH]1 [Compound 193] | 100 to 400 nM | 20 to 100 nM | ≥ 400 nM | 100 to 400 nM

Further lines, with some results ahead:

Row | IC50 [4] | SMILES | IC50 [1] | IC50 [2] | IC50 [3]
8 | 20 to 100 nM | Cc1nc2ccc(Oc3ccc4ncc(-c5cnn(C(C)(C)C6CC(=O)C6)c5)nc4c3Cl)cc2[nH]1 [Compound 150] | 20 to 100 nM | ≥ 400 nM | 20 to 100 nM
9 | 100 to 400 nM | Cc1nc2ccc(Oc3ccc4ncc(-c5cnn(C6CN(C(=O)N7CC(O)C7)C6)c5)nc4c3Cl)cc2[nH]1 [Compound 183] | 100 to 400 nM | ≥ 400 nM | 100 to 400 nM
10 | 20 to 100 nM | Cc1nc2ccc(Oc3ccc4ncc(-c5cnn(C6CN(C(=O)N(C)C)C6)c5)nc4c3Cl)cc2[nH]1 [Compound 184] | 20 to 100 nM | ≥ 400 nM | 20 to 100 nM
11 | 20 to 100 nM | Cc1nc2ccc(Oc3ccc4ncc(-c5cnn(C6CN(C(=O)N7CCC7)C6)c5)nc4c3Cl)cc2[nH]1 [Compound 185] | 20 to 100 nM | ≥ 400 nM | 20 to 100 nM
12 | ≥ 400 nM | Cc1nc2ccc(Oc3ccc4ncc(-c5cnn(C6CCC(F)(F)CC6)c5)nc4c3Cl)cc2o1 [Compound 186] | ≥ 400 nM | ≥ 400 nM | ≥ 400 nM
13 | 20 to 100 nM | Cc1nc2ccc(Oc3ccc4ncc(-c5cnn(C6CCN(C(=O)N7CC(O)C7)CC6)c5)nc4c3Cl)cc2[nH]1 [Compound 189] | 20 to 100 nM | ≥ 400 nM | 20 to 100 nM
14 | ≥ 400 nM | Cc1nc2ccc(Oc3ccc4ncc(-c5cnn(C6CN(c7cccc(N(C)C)n7)C6)c5)nc4c3Cl)cc2[nH]1 [Compound 190] | ≥ 400 nM | ≥ 400 nM | ≥ 400 nM
15 | 100 to 400 nM | Cc1nc2ccc(Oc3ccc4ncc(-c5cnn(C6CN(c7ccccn7)C6)c5)nc4c3Cl)cc2[nH]1 [Compound 191] | 100 to 400 nM | ≥ 400 nM | 100 to 400 nM
16 | 20 to 100 nM | Cc1nc2ccc(Oc3ccc4ncc(-c5cnn(CC6CCNS(=O)(=O)C6)c5)nc4c3Cl)cc2[nH]1 (stereo not drawn) [Compound 192] | 20 to 100 nM | ≥ 400 nM | 20 to 100 nM
17 | 100 to 400 nM | Cc1nc2ccc(Oc3ccc4ncc(-c5cnn(C6CCN(c7ccccn7)CC6)c5)nc4c3Cl)cc2[nH]1 [Compound 194] | 100 to 400 nM | ≥ 400 nM | 100 to 400 nM
18 | 20 to 100 nM | Cc1nc2ccc(Oc3ccc4ncc(-c5cnn(C(C)(C)C(=O)C6CC[C@H](F)C6)c5)nc4c3Cl)cc2[nH]1 (stereo partly drawn) [Compound 195] | 20 to 100 nM | ≥ 400 nM | 20 to 100 nM
